These results are taken from patent US20040072871A1, “Novel thiophene derivatives, their process of preparation and the pharmaceutical compositions which comprise them” (priority 2002, published 2004).

Counter-ions that a name gives are not always drawn.

The target of one assay is MMP-12 (Homo sapiens, UniProt P39900). As to the kind of experiment: In vitro inhibition of proteolysis of fluorogenic peptide substrate FP-1 by MMP-12. In kind it is biochemical. The following applies: substrate FP-1 10 μM, 20 minutes at ambient temperature, compounds tested 0.3 to 30 μM. The protocol: (§1) The inhibitory activity of the compounds of formula (I) with regard to metalloproteinase-12 is evaluated by testing the ability of the compounds of the invention to inhibit the proteolysis of a peptide substrate by MMP-12.
Chain of MMP-12 (P39900 106-470): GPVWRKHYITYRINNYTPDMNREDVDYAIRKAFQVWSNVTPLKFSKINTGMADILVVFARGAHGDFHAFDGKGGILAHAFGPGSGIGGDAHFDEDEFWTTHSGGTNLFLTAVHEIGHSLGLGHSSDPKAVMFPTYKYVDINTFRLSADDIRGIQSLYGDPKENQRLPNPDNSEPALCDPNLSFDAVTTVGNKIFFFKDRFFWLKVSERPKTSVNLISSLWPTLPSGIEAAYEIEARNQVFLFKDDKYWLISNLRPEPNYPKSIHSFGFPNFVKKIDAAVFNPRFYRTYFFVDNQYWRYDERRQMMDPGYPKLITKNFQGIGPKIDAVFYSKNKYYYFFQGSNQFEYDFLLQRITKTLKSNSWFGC
(§2) The inhibitory activity of a compound of formula (I) is expressed as IC50 value, which represents the concentration of inhibitor at which a degree of inhibition of the metalloproteinase of 50% is observed.
(§3) The reaction begins with the sequential addition of 41 μl of substrate FP-1 (final concentration of 10 μM) to a buffer solution of 50 mM of Tris-HCl and 10 mM of CaCl2, which comprises 5 mM of hydroxamic acid and 5 μl of the enzyme diluted in a 0.005% Brij-35 buffer solution. The microplates are incubated for 20 minutes at ambient temperature. The compounds of the invention are tested at concentrations varying from 0.3 to 30 μM.
(§4) The measurement of the amount of proteolysis of the peptide substrate is monitored by a measurement of absorbance at 405 nm using a microplate spectrophotometer, at ambient temperature. The IC50 values are calculated from curves in which the percentage of the catalytic activity relative to the control is represented on the […] and the concentration of inhibitor is represented on the Y axis.

Another assay concerns the target MMP-13 (Homo sapiens, UniProt P45452). As to the kind of experiment: MMP-12 test adapted to MMP-13. In kind it is biochemical. The protocol:
as §1, §2, §3, §4
The test described above for the inhibition of MMP-12 is adapted and used to determine the ability of the compounds of formula (I) to inhibit the metalloproteinases MMP-1, MMP-2, MMP-3, MMP-7, MMP-9, MMP-13 and MMP-14. […] More specifically, the compounds of the present invention generally show a selectivity with a factor of greater than 50 with respect to the metalloproteinases mentioned above, except towards MMP-13. Thus, the compounds of the present invention also show an inhibitory activity with regard to MMP-13, making it possible to also use the pharmaceutical compositions comprising one or more compounds of the invention in the treatment of pathologies related to activity of MMP-13. Mention may be made, among these pathologies, by way of indication and without implied limitation, of cancer, osetoporosis, osteoarthritis, arthritis, rheumatoid arthritis, atherosclerosis, multiple sclerosis, cardiac insufficiency, asthma and chronic obstructive pulmonary disease.

Usually IC50 stands for the midpoint of a concentration-inhibition curve. Take `O=C(O)Cc1ccc(CNC(=O)c2cc(-c3ccc(-c4cncnc4)cc3)cs2)cc1` [Example 111, 2-{4-[({4-[4-(Pyrimidin-5-yl)phenyl]thien-2-yl}carboxamido)-methyl]phenyl}acetic acid]: the IC50 was 0.7 µM at MMP-12 and 2.2 µM against MMP-13.

Regarding `O=C(NC[C@H]1CC[C@H](C(=O)O)CC1)c1cc(-c2ccc(OC(F)(F)F)cc2)cs1` [Example 35, trans-4-({[4-(4-Trifluoromethoxyphenyl)thien-2-yl]-carboxamido}methyl)cyclohexanecarboxylic acid], the IC50 on MMP-12 stood at 0.405 µM; against MMP-13, 3.45 µM.

Turning to `O=C(NCCN1CCOCC1)c1cc(-c2ccc(-c3cccc(O)c3)cc2)cs1` [Example 74, 4-[4-(3-Hydroxyphenyl)phenyl]-N-(2-morpholin-4-ylethyl)thiophene-2-carboxamide], the IC50 at MMP-12 was determined as 0.465 µM; against MMP-13, 6.25 µM.

For `O=C(O)Cc1ccc(NC(=O)c2cc(-c3ccc(OC(F)(F)F)cc3)cs2)cc1` [Example 55, (4-{[4-(4-Trifluoromethoxyphenyl)thien-2-yl]carboxamido}-phenyl)acetic acid], the results for the IC50 on MMP-12 and at MMP-13 were 0.615 µM and 15.8 µM, respectively.

With `CC(=O)c1ccc(-c2ccc(-c3csc(C(=O)NC[C@H]4CC[C@H](C(=O)O)CC4)c3)cc2)cc1` [Example 123, trans-4-[({4-[4-(4-Acetylphenyl)phenyl]thien-2-yl}carboxamido)-methyl]cyclohexanecarboxylic acid], the half-inhibitory concentration (IC50) was 0.018 µM against MMP-12 and 0.031 µM at MMP-13.

With `O=C(O)CC[C@H]1CC[C@H](NC(=O)c2cc(-c3ccc(OC(F)(F)F)cc3)cs2)CC1` [Example 129, trans-3-(4-{[4-(4-Trifluoromethoxyphenyl)thien-2-yl]-carboxamido}cyclohexyl)propanoic acid], the IC50 came out at 0.78 µM on MMP-12 and 6.2 µM against MMP-13.

“2-[4-({[4-(4′-Benzoyl-4-biphenyl)thien-2-yl]carboxamido}-methyl)phenyl]acetic acid [Example 107]”: on MMP-12, the midpoint of inhibition, the IC50, lay at 0.05 µM.

Regarding `O=C(O)Cc1ccc(CNC(=O)c2cc(-c3ccc(-c4ccccc4O)cc3)cs2)cc1` [Example 115], the IC50 against MMP-12 is 0.25 µM; against MMP-13, 3.32 µM.

`CCC(=O)c1ccc(-c2ccc(-c3csc(C(=O)NCc4ccc(CC(=O)O)cc4)c3)cc2)cc1` [Example 103, 2-[4-({[4-(4′-Propionyl-4-biphenyl)thien-2-yl]carboxamido}-methyl)phenyl]acetic acid] gave a half-inhibitory concentration (IC50) on MMP-12 of 0.05 µM.

`O=C(NC1CCCCC1CO)c1cc(-c2ccc(OC(F)(F)F)cc2)cs1` (centres unmarked) [Example 121, N-[2-(Hydroxymethyl)cyclohexyl]-4-(4-trifluoromethoxyphenyl)-thiophene-2-carboxamide]: half-maximal inhibition against MMP-12 (IC50) was put at 0.72 µM.

Take `O=C(NCc1cc(F)c(O)c(F)c1)c1cc(-c2ccc(OC(F)(F)F)cc2)cs1` [Example 84, N-(3,5-Difluoro-4-hydroxybenzyl)-4-(4-trifluoromethoxyphenyl)-thiophene-2-carboxamide]: the IC50 turned out to be 0.56 µM on MMP-12 and 3.06 µM on MMP-13.

With `O=C(NCCN1CCOCC1)c1cc(-c2ccc(-c3cccnc3)cc2)cs1` [Example 11, 4-[4-(Pyridin-3yl)phenyl]-N-(2-morpholin-4-ylethyl)thiophene-2-carboxamide], the IC50 came out at 0.91 µM on MMP-12 and 4.8 µM against MMP-13.

With `O=C(NCCN1CCOCC1)c1cc(-c2ccc(-c3ccccc3F)cc2)cs1` [Example 120, 4-[4-(2-Fluorophenyl)phenyl]-N-(2-morpholin-4-ylethyl)thiophene-2-carboxamide], the IC50 was determined as 0.66 µM against MMP-12 and 6.1 µM at MMP-13.

As for `CC(=O)c1cccc(-c2ccc(-c3csc(C(=O)NCCN4CCOCC4)c3)cc2)c1` [Example 76], the IC50 on MMP-12 is 0.48 µM; at MMP-13, 3.7 µM.

Regarding `O=C(NC[C@H]1CC[C@H](C(=O)O)CC1)c1cc(-c2ccc(-c3ccncc3)cc2)cs1` [Example 70, 4-[({4-[4-(Pyridinyl)phenyl]thien-2-yl}carboxamido)methyl]cyclo-hexanecarboxylic acid hydrochloride], the figures for the concentration for half-maximal inhibition (IC50) against MMP-12 and against MMP-13 were 0.022 µM and 0.285 µM, respectively.

At MMP-12, `O=C(O)Cc1ccc(CNC(=O)c2cc(-c3ccc(-c4ccc(C(=O)C5CC5)cc4)cc3)cs2)cc1` [Example 105, 2-[4-({[4-(4′-Cyclopropylcarbonyl-4-biphenyl)thien-2-yl]-carboxamido}methyl)phenyl]acetic acid] yielded an IC50 of 0.05 µM.

`O=C(O)CC[C@@H]1CCC[C@@H](NC(=O)c2cc(-c3ccc(OC(F)(F)F)cc3)cs2)C1` (relative stereo) [Example 125, trans-3-(3-{[4-(4-Trifluoromethoxyphenyl)thien-2-yl]-carboxamido}cyclohexyl)propanoic acid]: the IC50 was 0.32 µM on MMP-12 and 3.95 µM against MMP-13.

Turning to `O=C(O)Cc1ccc(CNC(=O)c2cc(-c3ccc(Oc4ccccc4)cc3)cs2)cc1` [Example 81, 2-[4-({[4-(4-Phenoxyphenyl)thien-2-yl]carboxamido}methyl)phenyl]-acetic acid], the IC50 came to 0.5 µM at MMP-12 and 3.7 µM on MMP-13.

In the case of `O=C(NCC1CCC(C(=O)O)CC1)c1cc(-c2ccc(OC(F)(F)F)cc2)cs1` (centres unmarked) [Example 43, 4-({[4-(4-Trifluoromethoxyphenyl)thien-2-yl]carboxamido}-methyl)cyclohexanecarboxylic acid], the 50% inhibitory concentration (IC50) against MMP-12 was 0.715 µM; against MMP-13, 5.37 µM.

With `O=C(O)CCc1cccc(CNC(=O)c2cc(-c3ccc(OC(F)(F)F)cc3)cs2)c1` [Example 65, 3-[3-({[4-(4-Trifluoromethoxyphenyl)thien-2-yl]carboxamido}-methyl)phenyl]propanoic acid], the IC50 against MMP-12 came out at 0.685 µM; against MMP-13 it was 2.9 µM.

Consider `O=C(NCCN1CCOCC1)c1cc(-c2ccc(C3CCCCC3)cc2)cs1` [Example 21, 4-[4-(Cyclohexyl)phenyl]-N-(2-morpholin-4-ylethyl)thiophene-2-carboxamide], for which the IC50 stood at 0.46 µM at MMP-12 and 11 µM at MMP-13.

For `O=C(NCCN1CCOCC1)c1cc(-c2ccc(-c3ccccc3)cc2)cs1` [Example 2, 4-(4-Biphenyl)-N-(2-morpholin-4-ylethyl)thiophene-2carboxamide], the IC50 is 0.35 µM on MMP-12 and 30 µM against MMP-13.

In the case of `CC(=O)c1ccc(-c2ccc(-c3csc(C(=O)NCc4ccc(CC(=O)O)cc4)c3)cc2)c(O)c1` [Example 117, 2-{4-[({4-[4-(4-Acetyl-2-hydroxyphenyl)phenyl]thien-2-yl}-carboxamido)methyl]phenyl}acetic acid], the IC50 stood at 0.16 µM against MMP-12 and 0.31 µM against MMP-13.

Consider `O=C(O)Cc1ccc(CNC(=O)c2cc(-c3ccc(OC(F)(F)F)cc3)cs2)cc1` [Example 37, 2-[4-({[4-(4-Trifluoromethoxyphenyl)thien-2-yl]carboxamido}-methyl)phenyl]acetic acid], for which the IC50 on MMP-12 stood at 0.427 µM; against MMP-13, 4.53 µM.

As to `CS(=O)(=O)c1ccc(-c2ccc(-c3csc(C(=O)NCCN4CCOCC4)c3)cc2)cc1` [Example 75, 4-[4-(4-Methylsulphonylphenyl)phenyl]-N-(2-morpholin-4-ylethyl)thiophene2-carboxamide], the IC50 was 0.34 µM at MMP-12 and 0.27 µM against MMP-13.

As for `CC(=O)c1ccc(-c2ccc(-c3csc(C(=O)NCc4ccc(CC(=O)O)cc4)c3)cc2)cc1O` [Example 113], the IC50 at MMP-12 is 0.14 µM.
